Assay [1] deals with CD8+ T cells from healthy HLA-A*02 donors. The experiment in a line: In vitro immunogenicity: priming of CD8+ T cells with aAPCs loaded with peptide/MHC complexes and anti-CD28, pMHC multimer readout. In kind it is cell-based, human. The note with it: HLA-A*02 restricted peptides, positive wells among evaluable, Table 10B. The source says:
In order to obtain information regarding the immunogenicity of the TUMAPs of the present invention, the inventors performed investigations using an in vitro T-cell priming assay based on repeated stimulations of CD8+ T cells with artificial antigen presenting cells (aAPCs) loaded with peptide/MHC complexes and anti-CD28 antibody.
In order to perform in vitro stimulations by artificial antigen presenting cells loaded with peptide-MHC complex (pMHC) and anti-CD28 antibody, the inventors first isolated CD8+ T cells from fresh HLA-A*02 leukapheresis products via positive selection using CD8 microbeads (Miltenyi Biotec, Bergisch-Gladbach, Germany) of healthy donors obtained from the University clinics Mannheim, Germany, after informed consent.
PBMCs and isolated CD8+ lymphocytes were incubated in T-cell medium (TCM) until use consisting of RPMI-Glutamax (Invitrogen, Karlsruhe, Germany) supplemented with 10% heat inactivated human AB serum (PAN-Biotech, Aidenbach, Germany), 100 U/ml Penicillin/100 μg/ml Streptomycin (Cambrex, Cologne, Germany), 1 mM sodium pyruvate (CC Pro, Oberdorla, Germany), 20 μg/ml Gentamycin (Cambrex). 2.5 ng/ml IL-7 (PromoCell, Heidelberg, Germany) and 10 U/ml IL-2 (Novartis Pharma, Nürnberg, Germany) were also added to the TCM at this step.
Generation of pMHC/anti-CD28 coated beads, T-cell stimulations and readout was performed in a highly defined in vitro system using four different pMHC molecules per stimulation condition and 8 different pMHC molecules per readout condition.
The purified co-stimulatory mouse IgG2a anti human CD28 Ab 9.3 (Jung et al., 1987) was chemically biotinylated using Sulfo-N-hydroxysuccinimidobiotin as recommended by the manufacturer (Perbio, Bonn, Germany). Beads used were 5.6 μm diameter streptavidin coated polystyrene particles (Bangs Laboratories, Illinois, USA).
800.000 beads/200 μl were coated in 96-well plates in the presence of 4×12.5 ng different biotin-pMHC, washed and 600 ng biotin anti-CD28 were added subsequently in a volume of 200 μl. Stimulations were initiated in 96-well plates by co-incubating 1×10^6 CD8+ T cells with 2×10^5 washed coated beads in 200 μl TCM supplemented with 5 ng/ml IL-12 (PromoCell) for 3 days at 37° C. Half of the medium was then exchanged by fresh TCM supplemented with 80 U/ml IL-2 and incubating was continued for 4 days at 37° C. This stimulation cycle was performed for a total of three times. For the pMHC multimer readout using 8 different pMHC molecules per condition, a two-dimensional combinatorial coding approach was used as previously described (Andersen et al., 2012) with minor modifications encompassing coupling to 5 different fluorochromes. Finally, multimeric analyses were performed by staining the cells with Live/dead near IR dye (Invitrogen, Karlsruhe, Germany), CD8-FITC antibody clone SK1 (BD, Heidelberg, Germany) and fluorescent pMHC multimers. For analysis, a BD LSRII SORP cytometer equipped with appropriate lasers and filters was used. Peptide specific cells were calculated as percentage of total CD8+ cells. Evaluation of multimeric analysis was done using the FlowJo software (Tree Star, Oregon, USA). In vitro priming of specific multimer+CD8+ lymphocytes was detected by comparing to negative control stimulations.

For the next assay, the target named is HLA-A*02:01 (Homo sapiens, UniProt P04439, D140Y/D185E/D98H/E176V/E277Q/G131W/G231S/I119V/I121R/I166T/I218V/L300P/L318F/N151K/N90K/P208A/P217A/Q86G/Q94H/R138H/R169H/T345S). Kind of assay: MHC binding assay (UV-ligand exchange, β2m ELISA, peptide exchange yield). The note with it: binding to HLA-A*02:01 ranged by peptide exchange yield (UV-ligand exchange, β2m ELISA). For orientation: In an ELISA, binding on a coated surface is turned into a signal by an enzyme label.

For the substance “50 (VLANRVAVV; listed as Homo sapiens) [compound 50]”, in assay [1], the “Wells positive [%]” value is given as “++++ (>=70% = ++++)”. For the same substance, the Peptide exchange entry with HLA-A*02:01 is reported as “+++ (>50 = +++)”.

In the case of “53 (ILVQVIPVV; listed as Homo sapiens) [compound 53]”, the “Wells positive [%]” value in assay [1] was “++ (20%-49% = ++)”. For the same substance, the Peptide exchange result with HLA-A*02:01 is listed as “+++ (>50 = +++)”.

Turning to “57 (GLAHFVNEI; listed as Homo sapiens) [compound 57]”, the “Wells positive [%]” value in assay [1] is “+ (<20% = +)”. In addition, the Peptide exchange result with HLA-A*02:01 is on record as “++++ (>75% = ++++)”.

For “59 (WLSTSIPEA; listed as Homo sapiens) [compound 59]”, the “Wells positive [%]” value in assay [1] is “+ (<20% = +)”. Besides, the Peptide exchange result with HLA-A*02:01 is “++++ (>75% = ++++)”.

On to “60 (SLSDVRVIV; listed as Homo sapiens) [compound 60]”, for which the “Wells positive [%]” value in assay [1] is reported as “+ (<20% = +)”. Also, in the assay with HLA-A*02:01, the Peptide exchange entry is recorded as “++++ (>75% = ++++)”.

As for “75 (RVISSVISV; listed as Homo sapiens) [compound 75]”, the “Wells positive [%]” value in assay [1] is on record as “++ (20%-49% = ++)”. Further, the Peptide exchange result with HLA-A*02:01 is reported as “+++ (>50 = +++)”.

On to “111 (LLDVTPKAV; listed as Homo sapiens) [compound 111]”, for which the “Wells positive [%]” value in assay [1] is on record as “+++ (50%-69% = +++)”. The Peptide exchange result with HLA-A*02:01 was “+++ (>50 = +++)”.

For “114 (IITKDLFQV; listed as Homo sapiens) [compound 114]”, in assay [1], the “Wells positive [%]” value is “+ (<20% = +)”. The Peptide exchange entry with HLA-A*02:01 is “+++ (>50 = +++)”.

Turning to “126 (SLLRVGWSV; listed as Homo sapiens) [compound 126]”, the “Wells positive [%]” value in assay [1] was “++ (20%-49% = ++)”. In the assay with HLA-A*02:01, the Peptide exchange result was “++++ (>75% = ++++)”.

As to “146 (YLARIQGFQV; listed as Homo sapiens) [compound 146]”, in assay [1], the “Wells positive [%]” value is listed as “++ (20%-49% = ++)”. Moreover, in the assay with HLA-A*02:01, the Peptide exchange entry is reported as “++++ (>75% = ++++)”.

“148 (TLGVIPESV; listed as Homo sapiens) [compound 148]”: the “Wells positive [%]” value in assay [1] is listed as “+ (<20% = +)”. Also, in the assay with HLA-A*02:01, the Peptide exchange entry is “++++ (>75% = ++++)”.

The values above are taken from patent publication US12084522B2, “Peptides, combination of peptides, and cell based medicaments for use in immunotherapy against urinary bladder cancer and other cancers” (Immatics Biotechnologies GmbH, priority 2016, dated 2024).
